Tests used:
Test in all cases: relative viability (nuclei count vs DMSO), 5 days (fraction); higher = more cells survive
Tipifarnib + Alpelisib = compound: Cn1cncc1[C@@](N)(c1ccc(Cl)cc1)c1ccc2c(c1)c(-c1cccc(Cl)c1)cc(=O)n2C [Tipifarnib] + Cc1nc(NC(=O)N2CCC[C@H]2C(N)=O)sc1-c1ccnc(C(C)(C)C(F)(F)F)c1 [Alpelisib] (partner 2 µM)
How it was run: (§1)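 For relative viability, nuclei counts in treated wells were divided by those in vehicle wells. Lung cancer cell lines had been pin-tool dosed in 1536-well plates the day after seeding and cultured for 5 days, then fixed and stained in one step (final 0.05% Triton X-100, 1% formaldehyde, 1 ug/ml Hoechst) and imaged at 4×. Doses were one drug alone or a fixed anchor-drug dose plus five library-drug doses (not always all listed) in √10 steps, and values are duplicate-plate medians.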

Tipifarnib + Tozasertib = compound: Cn1cncc1[C@@](N)(c1ccc(Cl)cc1)c1ccc2c(c1)c(-c1cccc(Cl)c1)cc(=O)n2C [Tipifarnib] + Cc1cc(Nc2cc(N3CCN(C)CC3)nc(Sc3ccc(NC(=O)C4CC4)cc3)n2)n[nH]1 [Tozasertib] (partner 0.1 µM)
How it was run: as §1

Tipifarnib + Dasatinib = compound: Cn1cncc1[C@@](N)(c1ccc(Cl)cc1)c1ccc2c(c1)c(-c1cccc(Cl)c1)cc(=O)n2C [Tipifarnib] + Cc1nc(Nc2ncc(C(=O)Nc3c(C)cccc3Cl)s2)cc(N2CCN(CCO)CC2)n1 [Dasatinib] (partner 0.075 µM)
How it was run: as §1

Tipifarnib + Luminespib = compound: Cn1cncc1[C@@](N)(c1ccc(Cl)cc1)c1ccc2c(c1)c(-c1cccc(Cl)c1)cc(=O)n2C [Tipifarnib] + CCNC(=O)c1noc(-c2cc(C(C)C)c(O)cc2O)c1-c1ccc(CN2CCOCC2)cc1 [Luminespib] (partner 0.01 µM)
How it was run: as §1

| Cell Line | relative viability (Tipifarnib + Alpelisib; first compound 0.01 µM) | relative viability (Tipifarnib + Alpelisib; first compound 0.03162 µM) | relative viability (Tipifarnib + Alpelisib; first compound 0.1 µM) | relative viability (Tipifarnib + Alpelisib; first compound 0.3162 µM) | relative viability (Tipifarnib + Alpelisib; first compound 1 µM) | relative viability (Tipifarnib + Tozasertib; first compound 0.01 µM) | relative viability (Tipifarnib + Tozasertib; first compound 0.03162 µM) | relative viability (Tipifarnib + Tozasertib; first compound 0.1 µM) | relative viability (Tipifarnib + Tozasertib; first compound 0.3162 µM) | relative viability (Tipifarnib + Tozasertib; first compound 1 µM) | relative viability (Tipifarnib + Dasatinib; first compound 0.01 µM) | relative viability (Tipifarnib + Dasatinib; first compound 0.03162 µM) | relative viability (Tipifarnib + Dasatinib; first compound 0.1 µM) | relative viability (Tipifarnib + Dasatinib; first compound 0.3162 µM) | relative viability (Tipifarnib + Dasatinib; first compound 1 µM) | relative viability (Tipifarnib + Luminespib; first compound 0.01 µM) | relative viability (Tipifarnib + Luminespib; first compound 0.03162 µM) | relative viability (Tipifarnib + Luminespib; first compound 0.1 µM) | relative viability (Tipifarnib + Luminespib; first compound 0.3162 µM) | relative viability (Tipifarnib + Luminespib; first compound 1 µM) |
| --- | --- | --- | --- | --- | --- | --- | --- | --- | --- | --- | --- | --- | --- | --- | --- | --- | --- | --- | --- | --- |
| HCC-366 | 0.559 | 0.47 | 0.272 | 0.159 | 0.0543 | 0.091 | 0.0658 | 0.0515 | 0.0779 | 0.0476 | 0.78 | 0.65 | 0.353 | 0.331 | 0.046 |  |  |  |  |  |
| HCC-827 | 1.04 | 1.03 | 0.767 | 0.626 | 0.667 | 0.41 | 0.409 | 0.335 | 0.26 | 0.334 | 0.372 | 0.363 | 0.446 | 0.403 | 0.431 | 1.06 | 0.471 | 0.279 | 0.365 | 0.256 |
| HOP-62 | 1.31 | 0.824 | 0.377 | 0.281 | 0.325 | 0.297 | 0.292 | 0.312 | 0.2 | 0.244 | 0.683 | 0.392 | 0.37 | 0.277 | 0.338 | 0.653 | 0.611 | 0.401 | 0.374 | 0.349 |
| IA-LM | 0.362 | 0.289 | 0.309 | 0.213 | 0.214 |  |  |  |  |  |  |  |  |  |  |  |  |  |  |  |
| LC-2-ad | 0.829 | 0.54 | 0.375 | 0.411 | 0.321 | 0.509 | 0.37 | 0.415 | 0.407 | 0.393 | 0.54 | 0.545 | 0.496 | 0.277 | 0.336 | 1.02 | 0.897 | 0.767 | 0.753 | 0.717 |
| LCLC-97TM1 | 0.218 | 0.181 | 0.2 | 0.17 | 0.173 | 0.154 | 0.18 | 0.186 | 0.148 | 0.215 | 0.833 | 0.704 | 0.745 | 0.64 | 0.383 | 0.799 | 0.751 | 0.662 | 0.52 | 0.574 |
| LCLC-103H | 0.949 | 0.964 | 0.924 | 0.792 | 0.768 | 0.413 | 0.375 | 0.364 | 0.309 | 0.31 | 0.47 | 0.441 | 0.426 | 0.345 | 0.328 | 0.991 | 0.892 | 0.693 | 0.662 | 0.521 |
| LK-2 | 1.21 | 1.06 | 0.827 | 0.544 | 0.639 | 0.158 | 0.173 | 0.189 | 0.157 | 0.162 | 0.276 | 0.261 | 0.27 | 0.299 | 0.191 | 0.191 | 0.172 | 0.207 | 0.172 | 0.175 |
| LOU-NH91 | 0.706 | 0.702 | 0.644 | 0.545 | 0.583 | 0.61 | 0.524 | 0.329 | 0.464 | 0.441 | 0.53 | 0.505 | 0.507 | 0.451 | 0.338 | 0.321 | 0.336 | 0.323 | 0.322 | 0.323 |

From the supplement of paper PMC10307832
